Laboratory results: PubChem BioAssay (NCI)
Where “and” joins values, the source holds several entries; their conditions need not be identical. Equal entries are not always repeated.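 Values below derive from 48-hour exposures of cells grown in 96-well plates, with endpoints linearly interpolated between the two concentrations bracketing the appropriate inhibition level. The concentration for 50% growth inhibition is given as GI50. TGI: total growth inhibition.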

Assays:
Assay in all cases: DTP human tumour cell line panel, 48 h
[1] = tested on: EKVX NSCLC
[2] = tested on: SNB-75 CNS
[3] = tested on: OVCAR-8 ovarian
[4] = tested on: SK-MEL-2 melanoma
[5] = tested on: SN12C renal
[6] = tested on: SK-MEL-5 melanoma
[7] = tested on: TK-10 renal
[8] = tested on: NCI-H226 lung
[9] = tested on: HOP-62 NSCLC
[10] = tested on: 786-0 renal

Row | Structure (SMILES) | GI50 [1] | TGI [1] | GI50 [2] | TGI [2] | GI50 [3] | TGI [3] | GI50 [4] | TGI [4] | GI50 [5] | TGI [5] | GI50 [6] | TGI [6] | GI50 [7] | TGI [7] | GI50 [8] | TGI [8] | GI50 [9] | TGI [9] | GI50 [10] | TGI [10]
1 | CCCCC(CCCCCC(CCCC)NCc1ccc2c(c1)OCO2)NCc1ccc2c(c1)OCO2 (configuration not stated) | 1.37 µM | 2.87 µM | 1.46 µM | 2.78 µM | 0.393 µM | 0.967 µM | 0.336 µM | 0.835 µM | 1.42 µM | 2.96 µM | 0.758 µM | 2 µM | 1.43 µM | 2.88 µM | 1.91 µM | 4.02 µM | 0.836 µM | 2.13 µM | 1.25 µM | 2.53 µM
2 | O=C(O)[C@H](Cc1c[nH]c2ccccc12)N1C(=O)c2ccccc2C1=O | – | > 100 µM | – | > 100 µM | > 100 µM | > 100 µM | – | > 100 µM | – | > 100 µM | – | > 100 µM | – | > 100 µM | – | > 100 µM | – | > 100 µM | – | > 100 µM
3 | COC(=O)c1ccc2c(c1)C(=O)c1c-2n(CCCCl)c(=O)c2cc([N+](=O)[O-])ccc12 | > 100 µM | > 100 µM | 61.7 µM | > 100 µM | > 100 µM | > 100 µM | > 100 µM | > 100 µM | > 100 µM | > 100 µM | 85.7 µM | > 100 µM | > 100 µM | > 100 µM | > 100 µM | > 100 µM | 43.3 µM | > 100 µM | 63.5 µM | > 100 µM
4 | CN1CN(C2OC(CO)C(O)C2O)c2nc(N)[nH]c(=O)c21 (configuration not stated) | – | > 100 µM | – | > 100 µM | – | > 100 µM | – | > 100 µM | – | > 100 µM | – | > 100 µM | – | > 100 µM | – | > 100 µM | – | > 100 µM | – | > 100 µM
5 | CCOC(=O)C(=O)Nc1nc2c(OCC)cccc2s1 | – | > 100 µM | – | > 100 µM | – | > 100 µM | – | > 100 µM | – | > 100 µM | – | > 100 µM | – | > 100 µM | – | > 100 µM | – | > 100 µM | – | > 100 µM
6 | C=C1CC2(CC(c3ccccc3Cl)OC(c3ccccc3Cl)C2)OC1=O (configuration not stated) | – | 15.2 µM | – | 8.41 µM | – | 4.71 µM | – | 6.78 µM | – | 5.75 µM | – | 10.4 µM | – | 9.03 µM | – | 21.3 µM | – | 21.1 µM | – | 4.66 µM
7 | CN(C)CCN1C(=O)c2cccc3cc([N+](=O)[O-])cc(c23)C1=O | – | 2.68 µM | – | 1.05 µM | – | 2.02 µM | – | 3.14 µM | – | 1.69 µM | – | 1.37 µM | – | – | – | 0.436 µM | – | 0.779 µM | – | 8.1 µM
8 | O=C(CCl)NCCNc1nccc(Nc2ccc(S(=O)(=O)Nc3ccccn3)cc2)n1 | 3.15 µM | 12.8 µM | 2.84 µM | 13.3 µM | 3.84 µM | > 100 µM | 2.33 µM | 7.83 µM | 2.85 µM | 11.1 µM | 1.53 µM | 2.94 µM | 3.04 µM | 10.3 µM | 3.34 µM | 28.3 µM | 2.17 µM | 5.46 µM | 3.25 µM | 11.7 µM
9 | CN(CCCCCl)P(=O)(OCCS(=O)(=O)CC(NC(=O)CCC(N)C(=O)O)C(=O)NC(C(=O)O)c1ccccc1)OCC1OC(n2ccc(N)nc2=O)C(O)C1O (configuration not stated) | 67.4 µM | > 75 µM | 40.4 µM | 74.6 µM | 5.4 µM | > 75 µM | > 75 µM | > 75 µM | > 60 µM | > 75 µM | 20.4 µM | > 75 µM | 73.4 µM | > 75 µM | > 70.7 µM | > 75 µM | 33.7 µM | > 75 µM | 32.2 µM | > 75 µM
10 | CC(=O)OC1CCC2(C)C(CCC3C2CC(=O)C2(C)C3CC(N3CC3)C2C(C)=O)C1 (configuration not stated) | – | 40.9 µM | – | 42.6 µM | – | 46.7 µM | – | 36.1 µM | – | 61 µM | – | 32.3 µM | – | 45.3 µM | – | 37.8 µM | – | > 100 µM | – | 64.4 µM
11 | CSCS(=O)C[C@H](CO)NC(=O)/C=C/c1c(C)[nH]c(=O)[nH]c1=O (some centres not stated) | 3.3 µM | 12.7 µM and 4.98 µM | 1.14 µM | 4.15 µM and 1.03 µM | 1.02 µM | 3.96 µM and 4.35 µM | 1.65 µM | 4.59 µM and 2.75 µM | 1.46 µM | 7.79 µM and 5.49 µM | 1.7 µM | 5.07 µM and 5.39 µM | – | > 29.5 µM | – | 3.42 µM | 1.57 µM | 4.92 µM and 3.67 µM | – | 5.23 µM
12 | O=C(CC1(O)C(=O)N(Cc2ccccc2)c2ccc(Cl)cc21)c1ccc(C(=O)NCC2CCC3(CC2)OOC2(CCCCC2)OO3)cc1 (configuration not stated) | 0.306 µM | 1.08 µM | 1.35 µM | 3.39 µM | 0.295 µM | 0.758 µM | 1.87 µM | 4.41 µM | 0.797 µM | 2.38 µM | 1.89 µM | 4.56 µM | 0.181 µM | 0.358 µM | 1.72 µM | 9.06 µM | 0.189 µM | 0.39 µM | 0.192 µM | 0.367 µM
13 | COC(OC)c1cc2c(cc1C=O)OCO2 | – | > 100 µM | – | 54.7 µM | – | > 100 µM | – | > 100 µM | – | > 100 µM | – | > 100 µM | – | > 100 µM | – | > 100 µM | – | > 100 µM | – | > 100 µM
14 | Cc1cccc(-n2c(N)c(-c3nc4ccccc4[nH]3)sc2=S)c1 | – | 82.7 µM | – | > 100 µM | – | 72 µM | – | 62.3 µM | – | 86.9 µM | – | 46.7 µM | – | 68.5 µM | – | 73.9 µM | – | 78.9 µM | – | 54.1 µM
15 | O=C(Nc1ccc(Cc2ccccc2)cc1)Nc1nn(C(=O)Nc2ccc(Cc3ccccc3)cc2)c2ccccc12 | > 100 µM | > 100 µM | 33.8 µM | > 100 µM | > 100 µM | > 100 µM | > 100 µM | > 100 µM | > 100 µM | > 100 µM | > 100 µM | > 100 µM | > 100 µM | > 100 µM | > 100 µM | > 100 µM | 59.7 µM | > 100 µM | > 100 µM | > 100 µM
